For 22 compounds, IC50 results are on record in patent US12304897B2, “15-PGDH inhibitors” (KYORIN PHARMACEUTICAL CO., LTD., priority 2019, dated 2025).

The target in this assay is recombinant human 15-PGDH (Homo sapiens (Human), UniProt P15428). The assay is described as follows: 15-PGDH enzyme inhibition test. The assay is classed as biochemical. The settings on record: 4 nM recombinant human 15-PGDH, 30 μM PGE2, 1 mM NAD+, fluorescence 340/440 nm after 60 min. On the procedure:
15-PGDH Enzyme Inhibition Test
Test compounds and 4 nM recombinant human 15-PGDH (R&D systems) in 50 mM Tris-HCl (pH 8.0) containing 0.01% TWEEN 20 (Sigma) and 0.01% bovine gamma globulin (Sigma) were put into 384 Flat Bottom Black plates (Corning, 3820) and allowed to stand for 12 minutes at room temperature. Then, 30 μM PGE2 (Cayman chemical) and 1 mM NAD^+ (Sigma) were added to start reaction. Sixty minutes after the start of reaction, signals were measured at an excitation wavelength of 340 nm and a fluorescence emission wavelength of 440 nm using Synergy 2 (BioTeck). The intensity of the fluorescent signal obtained when an assay buffer was added in place of the test compounds and NAD^+ was defined as 100% and that obtained with the addition of NAD^+ was defined as 0%.

The term IC50 denotes the concentration needed to halve the response being measured.

recombinant human 15-PGDH, sequence (P15428 whole entry): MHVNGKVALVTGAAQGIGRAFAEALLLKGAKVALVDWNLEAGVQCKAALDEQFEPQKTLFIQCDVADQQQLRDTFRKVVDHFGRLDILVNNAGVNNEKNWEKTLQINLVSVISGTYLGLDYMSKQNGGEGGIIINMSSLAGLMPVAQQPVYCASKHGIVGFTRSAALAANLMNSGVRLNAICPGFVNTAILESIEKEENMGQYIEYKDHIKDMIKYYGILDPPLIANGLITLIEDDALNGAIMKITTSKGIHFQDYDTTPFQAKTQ

For the compound `CCN1Cc2cc(-c3cccc4cc(C(=O)N5CCC(F)(F)CC5)ccc34)ccc2C1=O` [compound 66], the 50% inhibitory concentration (IC50) was < 3 nM.

As to `Cc1ccc2c(n1)CCN(c1cccc3cc(C(=O)N4CCCCC4)ccc13)C2` [compound 77], the IC50 is < 3 nM.

As to `Cc1c(-c2cccc3cc(C(=O)N4CCC(F)(F)CC4)ccc23)ccc2ncccc12` [compound 13], the concentration for half-maximal inhibition (IC50) was 3 to 10 nM.

As for `CN1CC2CN(c3cccc4cc(C(=O)N5CCCCC5)ccc34)CCN2C1=O` (stereo not shown) [compound 96], the IC50 fell in the range of 3 to 10 nM.

For `CN1Cc2cc(-c3ccc4cc(C(=O)N5CCC(F)(F)CC5)ccc4c3)ccc2C1=O` [compound 73], the half-inhibitory concentration (IC50) is ≥ 10 nM.

`CN1Cc2cc(-c3cccc4cc(C(=O)N5CCCCC5)ccc34)ccc2C1=O` [compound 37]: the 50% inhibitory concentration (IC50) was < 3 nM.

With `C[C@H]1CCCN(C(=O)c2ccc3c(N4CCc5c(cc[nH]c5=O)C4)cccc3c2)C1` [compound 60], the 50% inhibitory concentration (IC50) is < 3 nM.

As to `COC(=O)c1ccc(-c2cccc3cc(C(=O)N4CCC(F)(F)CC4)ccc23)cc1F` [compound 97], the IC50 was in the range of 3 to 10 nM.

`CN1Cc2cc(-c3cccc4cc(C(=O)N5CCC[C@@H](F)C5)ccc34)ccc2C1=O` [compound 63]: the concentration for half-maximal inhibition (IC50) is < 3 nM.

For `O=C1NCc2cc(-c3cccc4cc(C(=O)N5CCC(F)(F)CC5)ccc34)cnc21` [compound 82], the IC50 was < 3 nM.

Take `Cn1cnc2cc(-c3cccc4cc(C(=O)N5CCC(F)(F)CC5)cnc34)ccc2c1=O` [compound 164]: the IC50 was < 3 nM.

In the case of `O=C(c1cnc2c(-c3ccn4c(=O)ccnc4c3)cccc2c1)N1CCC(F)(F)CC1` [compound 160], the concentration for half-maximal inhibition (IC50) is < 3 nM.

Regarding `Cn1ccc2cc(-c3c(F)ccc4cc(C(=O)N5CCC(F)(F)CC5)ccc34)ncc2c1=O` [compound 157], the half-inhibitory concentration (IC50) is 3 to 10 nM.

On to `O=C(c1ccc2c(-c3ccc4c(=O)[nH]ccc4c3)cccc2c1)N1CCC(F)(F)CC1` [compound 110], for which the IC50 was < 3 nM.

Consider `CN1Cc2nc(-c3cccc4cc(C(=O)N5CCC(F)(F)CC5)ccc34)ccc2C1=O` [compound 32], for which the 50% inhibitory concentration (IC50) is < 3 nM.

On to `C[C@H]1CCCN(C(=O)c2ccc3c(N4CCc5ncccc5C4)cccc3c2)C1` [compound 2], for which the IC50 is < 3 nM.

For `Cn1ncc2cc(-c3cccc4cc(C(=O)N5CCC(F)(F)CC5)ccc34)cnc2c1=O` [compound 17], the IC50 is < 3 nM.

On to `CN1Cc2cc(-c3coc4cc(C(=O)N5CCCCC5)ccc34)ccc2C1=O` [compound 9], for which the IC50 is < 3 nM.

On to `O=C(c1ccc2c(-c3ccc4c(=O)[nH]ncc4c3)c(F)ccc2c1)N1CCC(F)(F)CC1` [compound 87], for which the IC50 is < 3 nM.

`COc1nccc2c1CCN(c1cccc3cc(C(=O)N4CCCCC4)ccc13)C2` [compound 22]: the half-inhibitory concentration (IC50) lay within 3 to 10 nM.

In the case of `O=C(c1ccc2c(N3CCN4C(=O)CCC4C3)cccc2c1)N1CCCCC1` (stereo not shown) [compound 12], the IC50 lay in the range of 3 to 10 nM.

Take `CN1Cc2cc(-c3cccc4cc(C(=O)N5CCC(F)(F)CC5)ccc34)cnc2C1=O` [compound 78]: the half-maximal inhibitory concentration (IC50) is < 3 nM.
